Patent publication US9371296B2, “Bicyclic 1,3,4-oxadiazole derivatives as sphingosine-1-phosphate receptors' modulators” (Allergan, Inc., priority 2014, dated 2016)

Target: T1, human S1P1 receptor (Homo sapiens, UniProt P21453)
T1 construct: expressed in transfected cells; membranes used
Assay: GTP γ35S binding assay for S1P1 activity
Format: biochemical
Settings: 5 microgram membrane protein, test compounds 0.08 to 5,000 nM, 30 min at 25° C.
Method: Compounds were synthesized and tested for S1P1 activity using the GTP γ^35S binding assay. These compounds may be assessed for their ability to activate or block activation of the human S1P1 receptor in cells stably expressing the S1P1 receptor.
GTP γ^35S binding was measured in medium containing (mM) HEPES 25, pH 7.4, MgCl2 10, NaCl 100, dithiothreitol 0.5, digitonin 0.003%, 0.2 nM GTP γ^35S, and 5 microgram membrane protein in a volume of 150 microliters. Test compounds were included in the concentration range from 0.08 to 5,000 nM unless indicated otherwise. Membranes were incubated with 100 μM 5′-adenylylimmidodiphosphate for 30 min, and subsequently with 10 micromolar GDP for 10 min on ice. Drug solutions and membrane were mixed, and then reactions were initiated by adding GTP γ^35S and continued for 30 min at 25° C. Reaction mixtures were filtered over Whatman GF/B filters under vacuum, and washed three times with 3 mL of ice-cold buffer (HEPES 25, pH7.4, MgCl2 10 and NaCl 100). Filters were dried and mixed with scintillant, and counted for ^35S activity using a β-counter. Agonist-induced GTP γ^35S binding was obtained by subtracting that in the absence of agonist. Binding data were analyzed using a non-linear regression method. In case of antagonist assay, the reaction mixture contained 10 nM […] in the presence of test antagonist at concentrations ranging from 0.08 to 5000 nM.

T1 sequence (P21453 whole entry): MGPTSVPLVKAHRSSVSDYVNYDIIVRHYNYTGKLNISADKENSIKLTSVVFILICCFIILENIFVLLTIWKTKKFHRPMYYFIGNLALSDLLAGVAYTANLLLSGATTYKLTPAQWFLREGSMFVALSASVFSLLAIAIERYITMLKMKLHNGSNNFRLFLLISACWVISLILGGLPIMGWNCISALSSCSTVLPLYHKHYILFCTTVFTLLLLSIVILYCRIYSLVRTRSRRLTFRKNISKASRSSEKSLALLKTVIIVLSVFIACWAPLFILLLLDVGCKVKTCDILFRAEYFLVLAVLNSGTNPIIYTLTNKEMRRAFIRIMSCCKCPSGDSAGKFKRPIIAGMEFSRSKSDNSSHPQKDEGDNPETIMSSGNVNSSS

EC50 [nM]	Compound
571	CCC/C(=C\c1nnc(-c2ccc(CNCCC(=O)O)c3ccccc23)o1)c1ccccc1 [Compound 2, 3-{[(4-{5-[(1E)-2-phenylpent-1-en-1-yl]-1,3,4-oxadiazol-2-yl}naphthalen-1-yl)methyl]amino}propanoic acid]
156	CCCC/C(=C\c1nnc(-c2ccc(CN3CC(C(=O)O)C3)c3ccccc23)o1)c1ccccc1 [Compound 14, 1-[(4-{5-[(1E)-2-phenylhex-1-en-1-yl]-1,3,4-oxadiazol-2-yl}naphthalen-1-yl)methyl]azetidine-3-carboxylic acid]
461	CCCC(Cc1nnc(-c2ccc(CN3CC(C(=O)O)C3)c3ncccc23)o1)c1ccccc1 (stereo not drawn) [Compound 18, 1-({5-[5-(2-phenylpentyl)-1,3,4-oxadiazol-2-yl]quinolin-8-yl}methyl)azetidine-3-carboxylic acid]
29	CCCC/C(=C\c1nnc(-c2ccc(CN3CC(C(=O)O)C3)c3ncccc23)o1)c1ccccc1 [Compound 16, 1-[(5-{5-[(1E)-2-phenylhex-1-en-1-yl]-1,3,4-oxadiazol-2-yl}quinolin-8-yl)methyl]azetidine-3-carboxylic acid]
27	CCC/C(=C\c1nnc(-c2ccc(CNCCCP(=O)(O)O)c3ccccc23)o1)c1ccccc1 [Compound 1, (3-{[(4-{5-[(1E)-2-phenylpent-1-en-1-yl]-1,3,4-oxadiazol-2-yl}naphthalen-1-yl)methyl]amino}propyl)phosphonic acid]
2.87	CCCCCC(Cc1nnc(-c2ccc(CNCCCP(=O)(O)O)c3ncccc23)o1)c1ccccc1 (stereo not drawn) [Compound 22, {3-[({5-[5-(2-phenylheptyl)-1,3,4-oxadiazol-2-yl]quinolin-8-yl}methyl)amino]propyl}phosphonic acid]
607	CCC/C(=C\c1nnc(-c2ccc(CN3CC(C(=O)O)C3)c3ccccc23)o1)c1ccccc1 [Compound 13, 1-[(4-{5-[(1E)-2-phenylpent-1-en-1-yl]-1,3,4-oxadiazol-2-yl}naphthalen-1-yl)methyl]azetidine-3-carboxylic acid]
417	CCCCCC(Cc1nnc(-c2ccc(CNCCC(=O)O)c3ncccc23)o1)c1ccccc1 (stereo not drawn) [Compound 20, 3-[({5-[5-(2-phenylheptyl)-1,3,4-oxadiazol-2-yl]quinolin-8-yl}methyl)amino]propanoic acid]
320	CCCCCC(Cc1nnc(-c2ccc(CNCCC(=O)O)c3ccccc23)o1)c1ccccc1 (stereo not drawn) [Compound 10, 3-[({4-[5-(2-phenylheptyl)-1,3,4-oxadiazol-2-yl]naphthalen-1-yl}methyl)amino]propanoic acid]
942	CCCCCC(Cc1nnc(-c2ccc(CN3CC(C(=O)O)C3)c3ccccc23)o1)c1ccccc1 (stereo not drawn) [Compound 17, 1-({4-[5-(2-phenylheptyl)-1,3,4-oxadiazol-2-yl]naphthalen-1-yl}methyl)azetidine-3-carboxylic acid]
150	CCC/C(=C\c1nnc(-c2ccc(CNCCC(=O)O)c3ncccc23)o1)c1ccccc1 [Compound 6, 3-{[(5-{5-[(1E)-2-phenylpent-1-en-1-yl]-1,3,4-oxadiazol-2-yl}quinolin-8-yl)methyl]amino}propanoic acid]
14	CCCCCC(Cc1nnc(-c2ccc(CNCCCP(=O)(O)O)c3ccccc23)o1)c1ccccc1 (stereo not drawn) [Compound 9, {3-[({4-[5-(2-phenylheptyl)-1,3,4-oxadiazol-2-yl]naphthalen-1-yl}methyl)amino]propyl}phosphonic acid]
0.5	CCCC/C(=C\c1nnc(-c2ccc(CNCCCP(=O)(O)O)c3ncccc23)o1)c1ccccc1 [Compound 7, (3-{[(5-{5-[(1E)-2-phenylhex-1-en-1-yl]-1,3,4-oxadiazol-2-yl}quinolin-8-yl)methyl]amino}propyl) phosphonic acid]
163	(E)-1-((5-(5-(2-phenylpent-1-en-1-yI)-1,3,4-oxadiazol-2-yl)quinolin-8-yl)methyl)azetidine-3-carboxylic acid [Compound 15]
0.61	CCC/C(=C\c1nnc(-c2ccc(CNCCCP(=O)(O)O)c3ncccc23)o1)c1ccccc1 [Compound 5, (3-{[(5-{5-[(1E)-2-phenylpent-1-en-1-yl]-1,3,4-oxadiazol-2-yl}quinolin-8-yl)methyl]amino}propyl) phosphonic acid]
0.26	CCCC(Cc1nnc(-c2ccc(CNCCCP(=O)(O)O)c3ncccc23)o1)c1ccccc1 (stereo not drawn) [Compound 11, {3-[({5-[5-(2-phenylpentyl)-1,3,4-oxadiazol-2-yl]quinolin-8-yl}methyl)amino]propyl}phosphonic acid]
2.52	CCCC/C(=C\c1nnc(-c2ccc(CNCCCP(=O)(O)O)c3ccccc23)o1)c1ccccc1 [Compound 3, (3-{[(4-{5-[(1E)-2-phenylhex-1-en-1-yl]-1,3,4-oxadiazol-2-yl}naphthalen-1-yl)methyl]amino}propyl) phosphonic acid]
376	CCCCC(Cc1nnc(-c2ccc(CN3CC(C(=O)O)C3)c3ncccc23)o1)c1ccccc1 (stereo not drawn) [Compound 23, 1-({5-[5-(2-phenylhexyl)-1,3,4-oxadiazol-2-yl]quinolin-8-yl}methyl)azetidine-3-carboxylic acid]
1.05	CCCCC(Cc1nnc(-c2ccc(CNCCCP(=O)(O)O)c3ncccc23)o1)c1ccccc1 (stereo not drawn) [Compound 21, {3-[({5-[5-(2-phenylhexyl)-1,3,4-oxadiazol-2-yl]quinolin-8-yl}methyl)amino]propyl}phosphonic acid]
33	CCCC/C(=C\c1nnc(-c2ccc(CNCCC(=O)O)c3ncccc23)o1)c1ccccc1 [Compound 8, 3-{[(5-{5-[(1E)-2-phenylhex-1-en-1-yl]-1,3,4-oxadiazol-2-yl}quinolin-8-yl)methyl]amino}propanoic acid]
340	CCCC(Cc1nnc(-c2ccc(CNCCC(=O)O)c3ncccc23)o1)c1ccccc1 (stereo not drawn) [Compound 12, 3-[({5-[5-(2-phenylpentyl)-1,3,4-oxadiazol-2-yl]quinolin-8-yl}methyl)amino]propanoic acid]
257	CCCCC(Cc1nnc(-c2ccc(CNCCC(=O)O)c3ncccc23)o1)c1ccccc1 (stereo not drawn) [Compound 19, 3-[({5-[5-(2-phenylhexyl)-1,3,4-oxadiazol-2-yl]quinolin-8-yl}methyl)amino]propanoic acid]
1090	CCCCCC(Cc1nnc(-c2ccc(CN3CC(C(=O)O)C3)c3ncccc23)o1)c1ccccc1 (stereo not drawn) [Compound 24, 1-({5-[5-(2-phenylheptyl)-1,3,4-oxadiazol-2-yl]quinolin-8-yl}methyl)azetidine-3-carboxylic acid]
85	CCCC/C(=C\c1nnc(-c2ccc(CNCCC(=O)O)c3ccccc23)o1)c1ccccc1 [Compound 4, 3-{[(4-{5-[(1E)-2-phenylhex-1-en-1-yl]-1,3,4-oxadiazol-2-yl}naphthalen-1-yl)methyl]amino}propanoic acid]
